The values that follow come from patent US20120064513A1, “Cell Sensor, And Monitoring Method Using Same For The Real-Time Monitoring Of Cell Capacitance” (Industry-Acaddemic Cooperation Foundation, Yonsei …, priority 2009, published 2012).

The test system of this experiment is HEP1 cell highly expressing CAR (coxsackie and adenovirus receptor). The experiment in a line: real-time monitoring of cell capacitance with the cell sensor, HEP1 cells. It counts as cell-based. An excerpt: The cell sensor 100 is connected to an LCR meter to measure capacitance, thereby monitoring potential changes of the cell 200 in real time. At this time, 10 mV of AC voltage at a frequency of 3 KHz is applied to the cell sensor 100. In this regard, the frequency of AC voltage applied to the cell sensor 100 may vary depending on the gap size between the first electrode 121 and the second electrode 122, and any frequency other than 3 KHz is also possible, as long as it is a low frequency.
A method for monitoring a cell condition in real time using the cell sensor according to the preferred embodiment of the present invention is as follows.
First, the aforementioned cell sensor is fabricated. The fabricated electrode is sterilized using autoclave equipment and ethanol, and then the well made of acryl or PDMS is attached on the electrode for cell culture.
Next, cells grown to a predetermined density are harvested with trypsin-EDTA, and introduced and attached onto the gap area between the electrodes using a pipette.
Subsequently, the cell-loaded electrodes are placed in a 5% CO2 cell culture incubator at 37° C. and incubated for 12 hrs, in order to tightly attach the cells onto the gap between the electrodes. During incubation, the cells are observed under an optical microscope, whether their conditions are suitable for the experiment.
Thereafter, the fluidic channel is mounted onto the electrodes where the cells are tightly attached, and is fixed on the stage of an optical microscope, of which the bottom is maintained at 37° C. Then, a cell culture media and at least one of biomolecules, cell death-inducing agents and metal particles for observation of endocytosis or adsorption is introduced through the inlet of the fluidic channel. […]
During the cell cultivation, capacitance between the first electrode and the second electrode is measured in real time, and thus endocytosis of the biomolecules into the cells through the cell surface receptor or adsorption is monitored in real time.

Where [1] appears, read: HEP1 cells, pretreatment then virus 1*10^5 per chamber.

Take `NC(=O)c1ncn([C@@H]2O[C@H](CO)[C@@H](O)[C@H]2O)n1` [Ribavirin]: under setting [1], the “capacitance after the initial peak, virus after pretreatment of the cells” value is given as “the capacitance after the peak decreases” and the “initial capacitance peak on virus endocytosis after pretreatment of the cells” value is “the initial peak appears”.

B1: TRAIL: cell death-inducing agent, TRAIL (TNF related apoptosis inducing ligand) (protein, UniProt P50591 1-281, looked up)
Tumor necrosis factor ligand …: MAMMEVQGGPSLGQTCVLIVIFTVLLQSLCVAVTYVYFTNELKQMQDKYSKSGIACFLKEDDSYWDPNDEESMNSPCWQVKWQLRQLVRKMILRTSEETISTVQEKQQNISPLVRERGPQRVAAHITGTRGRSNTLSSPNSKNEKALGRKINSWESSRSGHSFLSNLHLRNGELVIHEKGFYYIYSQTYFRFQEEIKENTKNDKQMVQYIYKYTSYPDPILLMKSARNSCWSKDAEYGLYSIYQGGIFELKENDRIFVSVTNEHLIDMDHEASFFGAFLVG
Regarding B1, the “cell capacitance during cell death by cell death-inducing agent” value (HEP-1 cells, final concentration 50 ng/ml) is given as “capacitance decreases during cell death”.
